PMC8691750, “Euphorbia Factor L2 ameliorates the Progression of K/BxN Serum-Induced Arthritis by Blocking TLR7 Mediated IRAK4/IKKβ/IRF5 and NF-kB Signaling Pathways” (Frontiers in Pharmacology, 2021)
Where “and” joins values, the source holds several entries; their conditions need not be identical. Equal values may be shown once.

System: TLR signalling pathway genes
Experiment: Toll-like Receptor Pathway PCR array of ankles
Type: in vivo, C57BL/6 mice
Conditions: for S40/SIA (fold change) / log2(fold change) S40/SIA: S40 group vs SIA group
Method: Total RNA was isolated from the right ankles using the TRIzol Reagent (Invitrogen) and purified with RNeasy Mini Kit and RNase-Free DNase Set (Qiagen). RNA quality was determined using a spectrophotometer and was reversely transcribed using Wcgene® mRNA cDNA kit. The complementary DNA was used on the Toll-like Receptor Pathway PCR Array plate (Wcgene® biotech, China).

[1] = ankles of STA mice, single-animal samples S401-S405
[2] = ankles of STA mice, single-animal samples S401-S405, relative to GAPDH
[3] = ankles, STA mice + EFL2 i.p., individual mice EFL2-1 to EFL2-4
[4] = ankles, EFL2 40 mg/kg i.p. treated STA mice versus STA mice

C=C1C(OC(=O)c2ccccc2)CC2C(C=C(C)C(=O)C3(OC(C)=O)CC(C)C(OC(=O)c4ccccc4)C3C1OC(C)=O)C2(C)C (centres unmarked) [EFL2, Euphorbia factor L2]
S40/SIA (fold change) (Tlr8 mRNA): 0.1573
log2(fold change) S40/SIA (Tlr8 mRNA): -2.668
S40/SIA (fold change) (Tlr9 mRNA): 0.05745
log2(fold change) S40/SIA (Tlr9 mRNA): -4.122
S40/SIA (fold change) (Tnf mRNA): 0.271
log2(fold change) S40/SIA (Tnf mRNA): -1.884
S40/SIA (fold change) (Tnfaip3 mRNA): 0.2367
log2(fold change) S40/SIA (Tnfaip3 mRNA): -2.079
S40/SIA (fold change) (Tollip mRNA): 0.6335
log2(fold change) S40/SIA (Tollip mRNA): -0.6586
S40/SIA (fold change) (Traf6 mRNA): 0.511
log2(fold change) S40/SIA (Traf6 mRNA): -0.9687
S40/SIA (fold change) (Ube2v1 mRNA): 0.4284
log2(fold change) S40/SIA (Ube2v1 mRNA): -1.223
Rel Cт [1]: 30.17 and 31.86 and 31.19
Rela Cт [1]: 27.60 and 28.97 and 29.92
Ripk2 Cт [1]: 31.20 and 31.97 and 31.38
Tbk1 Cт [1]: 35.01 and 33.84 and 30.91
Tbp Cт [1]: 32.79 and 35.04 and 35.08 and 35.26
Ticam1 Cт [1]: 30.63 and 31.57 and 31.92 and 31.40
Ticam2 Cт [1]: 31.98 and 32.33 and 32.54 and 32.28
Tirap Cт [1]: 31.54 and 33.23 and 32.87
Tlr1 Cт [1]: 31.47 and 31.48 and 31.36 and 33.05
Tlr2 Cт [1]: 29.79 and 30.45 and 30.70
Tlr3 Cт [1]: 31.62 and 33.01 and 32.92 and 28.89
Tlr4 Cт [1]: 29.41 and 30.97 and 30.43 and 30.84
Tlr5 Cт [1]: 33.11 and 33.16 and 33.55 and 34.74
Tlr6 Cт [1]: 32.61 and 34.42 and 28.05
Tlr7 Cт [1]: 33.17 and 34.60 and 34.75
Tlr8 Cт [1]: 31.72 and 32.87
Tlr9 Cт [1]: 33.32 and 37.49
Tnf Cт [1]: 33.75 and 35.02 and 34.91
Tnfaip3 Cт [1]: 31.00 and 33.42 and 32.49 and 32.20
Tnfrsf1a Cт [1]: 27.55 and 28.63 and 28.76
Tollip Cт [1]: 29.42 and 30.42 and 30.55
Tradd Cт [1]: 31.88 and 32.32 and 32.17 and 32.45
Traf6 Cт [1]: 30.31 and 30.69 and 31.10 and 30.54
Ube2n Cт [1]: 27.18 and 28.39 and 28.43 and 28.55
Ube2v1 Cт [1]: 26.90 and 29.51 and 28.01 and 27.92
Rel fold-GAPDH [2]: 0.005407 and 0.004928 and 0.005486
Ripk2 fold-GAPDH [2]: 0.002639 and 0.004565 and 0.002897
Tlr2 fold-GAPDH [2]: 0.007046 and 0.01307 and 0.007729
Tlr8 fold-GAPDH [2]: 0.001839 and 0.001034
Tnf fold-GAPDH [2]: 0.0004529 and 0.0005528 and 0.0004186
Tnfaip3 fold-GAPDH [2]: 0.003028 and 0.001676 and 0.002239 and 0.001643
Tollip fold-GAPDH [2]: 0.009094 and 0.01333 and 0.008592
Becn1 relative expression to GAPDH [3]: 0.001891 and 0.007192 and 0.004096
Btk relative expression to GAPDH [3]: 0.001831 and 0.004678 and 0.001063 and 0.002403
Casp8 relative expression to GAPDH [3]: 0.01358 and 0.009475 and 0.01634
Ccl2 relative expression to GAPDH [3]: 0.00629 and 0.0002036 and 0.01529
Ccl11 relative expression to GAPDH [3]: 0.008836 and 0.01327 and 0.005579 and 0.01036
Cd86 relative expression to GAPDH [3]: 0.0005777 and 0.0007714 and 0.0003428 and 0.0007215
Chuk relative expression to GAPDH [3]: 0.01087 and 0.008829 and 0.008767
Clec4e relative expression to GAPDH [3]: 0.002249 and 0.0004993 and 4.1493e-5 and 0.0002637
Cxcl10 relative expression to GAPDH [3]: 2.1064e-5
Elk1 relative expression to GAPDH [3]: 0.005652 and 0.006734 and 0.002589 and 0.006009
Fadd relative expression to GAPDH [3]: 0.0009207 and 0.00158 and 0.0009332 and 0.001977
Hras1 relative expression to GAPDH [3]: 0.02746 and 0.02268 and 0.01475 and 0.02419
Hspd1 relative expression to GAPDH [3]: 0.02518 and 0.003019 and 0.01313 and 0.02796
IRF5 relative expression to GAPDH [3]: 0.004692 and 0.004033 and 0.001353 and 0.004631
Il1b relative expression to GAPDH [3]: 0.0009616 and 0.0008 and 0.0006699 and 0.005996
Il6 relative expression to GAPDH [3]: 0.0008677 and 0.0003997 and 0.0006556 and 0.002971
Il10 relative expression to GAPDH [3]: 0.0002257 and 7.048e-5 and 9.932e-5 and 0.0001425
Ilr1 relative expression to GAPDH [3]: 0.01561 and 0.01023 and 0.00774 and 0.01383
Irak2 relative expression to GAPDH [3]: 0.004831 and 0.004355 and 0.002516 and 0.003024
Irak3 relative expression to GAPDH [3]: 0.02176 and 0.01462 and 0.00868 and 0.01639
Irf1 relative expression to GAPDH [3]: 0.008232 and 0.006938
Irf3 relative expression to GAPDH [3]: 0.01143 and 0.004857 and 0.01116
Jun relative expression to GAPDH [3]: 0.0443 and 0.03642 and 0.03036 and 0.04078
Ly96 relative expression to GAPDH [3]: 0.008818 and 0.008037 and 0.003545 and 0.00648
Map2k4 relative expression to GAPDH [3]: 0.009032 and 0.01171 and 0.005161 and 0.006054
Myd88 relative expression to GAPDH [3]: 0.0089 and 0.006533 and 0.004478 and 0.009066
Nfkb2 relative expression to GAPDH [3]: 0.008129 and 0.004372 and 0.004079 and 0.005983
Nfkbia relative expression to GAPDH [3]: 0.03111 and 0.02056 and 0.01675 and 0.03064
Nfkbib relative expression to GAPDH [3]: 0.005737 and 0.004539 and 0.002397 and 0.00388
Nr2c2 relative expression to GAPDH [3]: 0.009954 and 0.006912 and 0.004742 and 0.008167
Peli1 relative expression to GAPDH [3]: 0.02035 and 0.01296 and 0.0006428 and 0.01623
Pglyrp1 relative expression to GAPDH [3]: 0.0004159 and 0.002383 and 0.001422
Ptgs2 relative expression to GAPDH [3]: 0.000397 and 0.0002674 and 0.0003018 and 0.001434
Rel relative expression to GAPDH [3]: 0.004928 and 0.005486 and 0.005407
Ticam1 relative expression to GAPDH [3]: 0.006005 and 0.003329 and 0.002855 and 0.003921
Tlr2 relative expression to GAPDH [3]: 0.01307 and 0.007729 and 0.007046
Tlr3 relative expression to GAPDH [3]: 0.002217 and 0.00166 and 0.01628 and 0.001979
Tlr4 relative expression to GAPDH [3]: 0.00914 and 0.009306 and 0.004225 and 0.009146
Tlr5 relative expression to GAPDH [3]: 0.001998 and 0.001071 and 0.0002832 and 0.0007049
Tlr7 relative expression to GAPDH [3]: 0.0007393 and 0.00028 and 0.0006762
Tlr8 relative expression to GAPDH [3]: 0.001034 and 0.001839
Tlr9 relative expression to GAPDH [3]: 9.931e-5 and 0.0006069
Tnf relative expression to GAPDH [3]: 0.0005528 and 0.0004186 and 0.0004529
Tnfaip3 relative expression to GAPDH [3]: 0.001676 and 0.002239 and 0.001643 and 0.003028
Tollip relative expression to GAPDH [3]: 0.01333 and 0.008592 and 0.009094
Traf6 relative expression to GAPDH [3]: 0.01108 and 0.005865 and 0.005186 and 0.004909
Ube2v1 relative expression to GAPDH [3]: 0.02505 and 0.04987 and 0.0319 and 0.05212
Becn1 fold change S40/SIA [4]: 0.2727
Btk fold change S40/SIA [4]: 0.3155
Casp8 fold change S40/SIA [4]: 0.2393
Ccl2 fold change S40/SIA [4]: 0.0326
Ccl11 fold change S40/SIA [4]: 1.864
Cd86 fold change S40/SIA [4]: 0.1925
Chuk fold change S40/SIA [4]: 0.3313
Clec4e fold change S40/SIA [4]: 0.0859
Cxcl10 fold change S40/SIA [4]: 0.002337
Elk1 fold change S40/SIA [4]: 0.3565
Fadd fold change S40/SIA [4]: 0.1995
Hras1 fold change S40/SIA [4]: 0.4915
Hspd1 fold change S40/SIA [4]: 0.2339
IRF5 fold change S40/SIA [4]: 0.3677
Il1b fold change S40/SIA [4]: 0.0229
Il6 fold change S40/SIA [4]: 0.03478
Il10 fold change S40/SIA [4]: 0.2443
Ilr1 fold change S40/SIA [4]: 0.09556
Irak2 fold change S40/SIA [4]: 0.4814
Irak3 fold change S40/SIA [4]: 0.4891
Irf1 fold change S40/SIA [4]: 0.3319
Irf3 fold change S40/SIA [4]: 0.3241
Jun fold change S40/SIA [4]: 0.3678
Ly96 fold change S40/SIA [4]: 0.3878
Map2k4 fold change S40/SIA [4]: 0.8651
Myd88 fold change S40/SIA [4]: 0.1447
Nfkb2 fold change S40/SIA [4]: 0.2395
Nfkbia fold change S40/SIA [4]: 0.2445
Nfkbib fold change S40/SIA [4]: 0.4073
Nr2c2 fold change S40/SIA [4]: 0.5521
Peli1 fold change S40/SIA [4]: 0.462
Pglyrp1 fold change S40/SIA [4]: 0.2161
Ptgs2 fold change S40/SIA [4]: 0.03786
Rel fold change S40/SIA [4]: 0.2762
Ticam1 fold change S40/SIA [4]: 0.59
Tlr2 fold change S40/SIA [4]: 0.1682
Tlr3 fold change S40/SIA [4]: 0.7859
Tlr4 fold change S40/SIA [4]: 0.5705
Tlr5 fold change S40/SIA [4]: 0.188
Tlr7 fold change S40/SIA [4]: 0.09461
Tlr8 fold change S40/SIA [4]: 0.1573
Tlr9 fold change S40/SIA [4]: 0.05745
Tnf fold change S40/SIA [4]: 0.271
Tnfaip3 fold change S40/SIA [4]: 0.2367
Tollip fold change S40/SIA [4]: 0.6335
Traf6 fold change S40/SIA [4]: 0.511
Ube2v1 fold change S40/SIA [4]: 0.4284
